From patent publication CN109456950A, “一种环糊精葡萄糖基转移酶的突变体及其应用” (priority 2018, dated 2019)

Legend:
Assay type in all cases: biochemical
[1] = biological target: Bacillus circulans cyclodextrin glycosyltransferase (CGTase) variant M234A, Met234Ala of parent SEQ ID NO.2 [来源于环状芽孢杆菌(B.circulans)的环糊精葡萄糖基转移酶, M234A] (Niallia circulans, UniProt P43379, M261A); experiment: Acceptor affinity for maltose (Km) in the disproportionation reaction, M234A; details: M234A vs wild type, EPS as donor, pH 5.5, 50℃, affinity expressed by Km
Chain of Bacillus circulans cyclodextrin glycosyltransferase (CGTase) variant M234A, Met234Ala of parent SEQ ID NO.2 [来源于环状芽孢杆菌(B.circulans)的环糊精葡萄糖基转移酶, M234A] (P43379 whole entry M261A): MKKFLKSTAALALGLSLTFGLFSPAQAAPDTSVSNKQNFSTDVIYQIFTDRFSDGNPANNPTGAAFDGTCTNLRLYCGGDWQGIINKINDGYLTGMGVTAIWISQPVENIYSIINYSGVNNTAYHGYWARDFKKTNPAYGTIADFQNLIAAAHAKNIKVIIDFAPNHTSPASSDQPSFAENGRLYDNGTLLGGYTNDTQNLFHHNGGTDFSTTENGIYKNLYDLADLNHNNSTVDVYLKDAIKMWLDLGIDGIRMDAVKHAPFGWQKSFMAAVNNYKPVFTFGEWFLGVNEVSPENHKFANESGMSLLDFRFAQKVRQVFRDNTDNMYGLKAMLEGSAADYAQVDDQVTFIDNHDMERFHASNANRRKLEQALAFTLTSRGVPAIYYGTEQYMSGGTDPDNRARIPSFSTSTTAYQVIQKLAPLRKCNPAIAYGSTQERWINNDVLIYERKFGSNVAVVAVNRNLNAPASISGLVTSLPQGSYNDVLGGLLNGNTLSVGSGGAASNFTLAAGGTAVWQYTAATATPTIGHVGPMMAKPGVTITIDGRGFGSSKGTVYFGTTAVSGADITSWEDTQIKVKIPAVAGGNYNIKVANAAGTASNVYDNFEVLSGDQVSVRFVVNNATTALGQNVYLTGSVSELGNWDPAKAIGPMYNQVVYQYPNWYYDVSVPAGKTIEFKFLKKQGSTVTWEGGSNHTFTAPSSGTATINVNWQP

[2] = biological target: T1, Bacillus circulans cyclodextrin glycosyltransferase (CGTase) variant M234V, Met234Val of parent SEQ ID NO.2 [来源于环状芽孢杆菌(B.circulans)的环糊精葡萄糖基转移酶, M234V] (Niallia circulans, UniProt P43379, M261V); experiment: Acceptor affinity for maltose (Km) in the disproportionation reaction, M234V; details: M234V vs wild type, EPS as donor, pH 5.5, 50℃, affinity expressed by Km
T1 construct: made in house; host or cells: E. coli BL21(DE3), pET-20b(+), fermentation supernatant (crude enzyme)
T1 sequence (P43379 28-713 M261V): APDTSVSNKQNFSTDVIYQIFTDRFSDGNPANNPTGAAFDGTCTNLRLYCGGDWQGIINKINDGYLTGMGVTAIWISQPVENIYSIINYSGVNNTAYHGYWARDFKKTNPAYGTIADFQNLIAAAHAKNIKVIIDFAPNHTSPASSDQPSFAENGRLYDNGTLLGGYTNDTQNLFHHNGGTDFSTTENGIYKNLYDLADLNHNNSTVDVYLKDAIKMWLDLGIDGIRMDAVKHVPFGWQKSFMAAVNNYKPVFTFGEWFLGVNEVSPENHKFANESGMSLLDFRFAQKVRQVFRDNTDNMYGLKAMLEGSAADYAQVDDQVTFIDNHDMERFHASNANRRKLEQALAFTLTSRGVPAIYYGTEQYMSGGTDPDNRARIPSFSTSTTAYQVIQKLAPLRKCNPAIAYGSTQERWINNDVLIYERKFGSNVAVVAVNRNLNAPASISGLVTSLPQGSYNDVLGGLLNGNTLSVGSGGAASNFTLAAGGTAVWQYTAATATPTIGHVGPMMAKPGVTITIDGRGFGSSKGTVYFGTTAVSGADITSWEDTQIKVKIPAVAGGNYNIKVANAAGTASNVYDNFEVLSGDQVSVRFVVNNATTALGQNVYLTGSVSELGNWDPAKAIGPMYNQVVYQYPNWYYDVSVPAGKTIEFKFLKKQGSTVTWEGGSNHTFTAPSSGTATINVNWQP

[3] = biological target: Bacillus circulans cyclodextrin glycosyltransferase (CGTase) variant M234L, Met234Leu of parent SEQ ID NO.2 [来源于环状芽孢杆菌(B.circulans)的环糊精葡萄糖基转移酶, M234L] (Niallia circulans, UniProt P43379, M261L); experiment: Acceptor affinity for maltose (Km) in the disproportionation reaction, M234L; details: M234L vs wild type, EPS as donor, pH 5.5, 50℃, affinity expressed by Km
Chain of Bacillus circulans cyclodextrin glycosyltransferase (CGTase) variant M234L, Met234Leu of parent SEQ ID NO.2 [来源于环状芽孢杆菌(B.circulans)的环糊精葡萄糖基转移酶, M234L] (P43379 whole entry M261L): as the sequence (P43379 whole entry M261A) above, with A261L counted along it

[4] = biological target: T2, Bacillus circulans cyclodextrin glycosyltransferase (CGTase) variant M234I, Met234Ile of parent SEQ ID NO.2 [来源于环状芽孢杆菌(B.circulans)的环糊精葡萄糖基转移酶, M234I] (Niallia circulans, UniProt P43379, M261I); experiment: Acceptor affinity for maltose (Km) in the disproportionation reaction, M234I; details: M234I vs wild type, EPS as donor, pH 5.5, 50℃, affinity expressed by Km
T2 construct: made in house; host or cells: E. coli BL21(DE3), pET-20b(+), fermentation supernatant (crude enzyme)
T2 sequence (P43379 28-713 M261I): as the sequence (P43379 28-713 M261V) above, with V234I counted along it

OCC1OC(OC2C(CO)OC(O)C(O)C2O)C(O)C(O)C1O (stereo not shown) [麦芽糖]
increase in acceptor affinity for maltose compared with wild type [1]: 34.7% | increase in acceptor affinity for maltose compared with wild type [2]: 36.9% | increase in acceptor affinity for maltose compared with wild type [3]: 30.3% | increase in acceptor affinity for maltose compared with wild type [4]: 45.6%
